We go through 15 compounds from patent US8613914B2, “Peptidomimetic sulfamide compounds and antiviral uses thereof” (Novartis AG, priority 2009, dated 2013).

One may read the IC50 as the point on the concentration scale where inhibition reaches its midpoint.

Structures are written as SMILES.

The target of this test is HCV NS3-4A serine protease (full-length NS3-4A protein) (Hepatitis C virus genotype 1a (isolate 1) (HCV), UniProt P26664). In words: HCV NS3-4A protease assay. The test is classed as biochemical, HCV genotype 1a. To be noted: strain HCV-1, fluorogenic peptide substrate, read-out: Protease assay Ex. 12 IC50. The method, then: The inhibitory activity of certain compounds of Table A against HCV NS3-4A serine protease is determined in a homogenous assay using the full-length NS3-4A protein (genotype 1a, strain HCV-1) and a commercially available internally-quenched fluorogenic peptide substrate as described by Taliani, M., et al. 1996 Anal. Biochem. 240:60-67, which is incorporated by reference in its entirety.
Chain of HCV NS3-4A serine protease (full-length NS3-4A protein) (P26664 1027-1657): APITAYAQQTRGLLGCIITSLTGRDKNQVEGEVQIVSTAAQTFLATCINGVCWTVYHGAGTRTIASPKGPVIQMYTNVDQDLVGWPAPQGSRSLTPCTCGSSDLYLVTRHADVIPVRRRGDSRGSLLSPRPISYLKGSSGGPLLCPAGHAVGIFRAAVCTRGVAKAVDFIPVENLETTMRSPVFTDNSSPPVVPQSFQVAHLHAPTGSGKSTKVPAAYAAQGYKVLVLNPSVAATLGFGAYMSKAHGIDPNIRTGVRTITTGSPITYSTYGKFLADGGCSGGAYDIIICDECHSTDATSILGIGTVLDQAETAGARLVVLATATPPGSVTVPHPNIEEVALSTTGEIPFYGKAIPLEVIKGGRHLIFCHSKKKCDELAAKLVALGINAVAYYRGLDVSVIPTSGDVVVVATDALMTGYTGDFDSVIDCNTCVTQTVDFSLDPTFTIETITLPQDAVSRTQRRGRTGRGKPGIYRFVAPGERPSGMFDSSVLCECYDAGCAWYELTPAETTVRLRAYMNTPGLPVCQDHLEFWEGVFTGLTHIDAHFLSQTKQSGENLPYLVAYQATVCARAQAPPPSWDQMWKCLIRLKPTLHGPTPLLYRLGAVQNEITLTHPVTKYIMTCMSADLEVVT
Chain of HCV NS3-4A serine protease (full-length NS3-4A protein) (P26664 1658-1711 partner): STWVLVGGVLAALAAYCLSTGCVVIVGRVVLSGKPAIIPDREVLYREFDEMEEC

For `C=C[C@@H]1C[C@]1(NC(=O)[C@@H]1C[C@@]2(CN1C(=O)[C@@H](NC(=O)[C@@H](NC(=O)[C@@H](OC)c1ccccc1)C1CCCCC1)C(C)(C)C)C(C)(C)C21CCC1)C(=O)NS(=O)(=O)N1CCCC1` [Compound 193, (5R,8S)-7-{(2S)-2-[(cyclohexyl{[(2S)-2-methoxy-2-phenylacetyl]amino}acetyl)amino]-3,3-dimethylbutanoyl}-10,10-dimethyl-N-{(1R,2S)-1-[(pyrrolidin-1-ylsulfonyl)carbamoyl]-2-vinylcyclopropyl}-7-azadispiro[3.0.4.1]decane-8-carboxamide], the half-maximal inhibitory concentration (IC50) amounted to 0.025 µM.

As for `C=C[C@@H]1C[C@]1(NC(=O)[C@@H]1C[C@@]2(CN1C(=O)[C@@H](NC(=O)[C@@H](NC(=O)[C@@H]1CCCN1CC)C1CCCC1)C(C)(C)C)C(C)(C)C21CCC1)C(=O)NS(=O)(=O)N(CC)CC` [Compound 97, (5R,8S)-7-[(2S)-2-{[(2S)-2-cyclopentyl-2-({[(2S)-1-ethylpyrrolidin-2-yl]carbonyl}amino)acetyl]amino}-3,3-dimethylbutanoyl]-N-[(1R,2S)-1-{[(diethylamino)sulfonyl]carbamoyl}-2-vinylcyclopropyl]-10,10-dimethyl-7-azadispiro[3.0.4.1]decane-8-carboxamide], the concentration for half-maximal inhibition (IC50) was 0.01 µM.

As for `CC[C@@H]1C[C@]1(NC(=O)[C@@H]1C[C@@]2(CN1C(=O)[C@@H](NC(=O)[C@@H](NC(=O)[C@@H]1CCCCN1C(C)C)C(C)(C)C)C(C)(C)C)C(C)(C)C21CCC1)C(=O)NS(=O)(=O)N1CCCC1` [Compound 30, (5R,8S)-N-{(1R,2R)-2-ethyl-1-[(pyrrolidin-1-ylsulfonyl)carbamoyl]cyclopropyl}-7-[(2S)-2-{[(2S)-2-({[(2S)-1-isopropylpiperidin-2-yl]carbonyl}amino)-3,3-dimethylbutanoyl]amino}-3,3-dimethylbutanoyl]-10,10-dimethyl-7-azadispiro[3.0.4.1]decane-8-carboxamide], the IC50 is 0.062 µM.

Regarding `C=C[C@@H]1C[C@]1(NC(=O)[C@@H]1C[C@@]2(CN1C(=O)[C@@H](NC(=O)[C@@H](NC(=O)[C@@H]1CCCN1CC)C1CCOCC1)C1(C)CCOCC1)C(C)(C)C21CCC1)C(=O)NS(=O)(=O)N1CCCC1` [Compound 129, (5R,8S)-7-[(2S)-2-{[(2S)-2-({[(2S)-1-ethylpyrrolidin-2-yl]carbonyl}amino)-2-(tetrahydro-2H-pyran-4-yl)acetyl]amino}-2-(4-methyltetrahydro-2H-pyran-4-yl)acetyl]-10,10-dimethyl-N-{(1R,2S)-1-[(pyrrolidin-1-ylsulfonyl)carbamoyl]-2-vinylcyclopropyl}-7-azadispiro[3.0.4.1]decane-8-carboxamide], the half-inhibitory concentration (IC50) is 0.006 µM.

As for `C=C[C@@H]1C[C@]1(NC(=O)[C@@H]1C[C@@]2(CN1C(=O)[C@@H](NC(=O)[C@@H](NC(=O)[C@@H]1CCCCN1CCF)C(C)(C)C)C(C)(C)C)C(C)(C)C21CCC1)C(=O)NS(=O)(=O)N1CCCC1` [Compound 20, (5R,8S)-7-[(2S)-2-{[(2S)-2-({[(2S)-1-(2-fluoroethyl)piperidin-2-yl]carbonyl}amino)-3,3-dimethylbutanoyl]amino}-3,3-dimethylbutanoyl]-10,10-dimethyl-N-{(1R,2S)-1-[(pyrrolidin-1-ylsulfonyl)carbamoyl]-2-vinylcyclopropyl}-7-azadispiro[3.0.4.1]decane-8-carboxamide], the IC50 worked out at 0.07 µM.

As to `C=C[C@@H]1C[C@]1(NC(=O)[C@@H]1C[C@@]2(CN1C(=O)[C@@H](NC(=O)[C@@H](NC(=O)c1cc(CC)nn1C)C1CCCCC1)C(C)(C)C)C(C)(C)C21CCC1)C(=O)NS(=O)(=O)N1CCCC1` [Compound 185, (5R,8S)-7-{(2S)-2-[(cyclohexyl{[(3-ethyl-1-methyl-1H-pyrazol-5-yl)carbonyl]amino}acetyl)amino]-3,3-dimethylbutanoyl}-10,10-dimethyl-N-{(1R,2S)-1-[(pyrrolidin-1-ylsulfonyl)carbamoyl]-2-vinylcyclopropyl}-7-azadispiro[3.0.4.1]decane-8-carboxamide], the IC50 came to 0.04 µM.

For `C=C[C@@H]1C[C@]1(NC(=O)[C@@H]1C[C@@]2(CN1C(=O)[C@@H](NC(=O)[C@@H](NC(=O)[C@@H]1CCCN1CC)C1CCCCC1)C(C)(C)C)C(C)(C)C21CCC1)C(=O)NS(=O)(=O)N(CC)C(C)C` [Compound 111, (5R,8S)-7-[(2S)-2-{[(2S)-2-cyclohexyl-2-({[(2S)-1-ethylpyrrolidin-2-yl]carbonyl}amino)acetyl]amino}-3,3-dimethylbutanoyl]-N-[(1R,2S)-1-({[ethyl(isopropyl)amino]sulfonyl}carbamoyl)-2-vinylcyclopropyl]-10,10-dimethyl-7-azadispiro[3.0.4.1]decane-8-carboxamide], the IC50 was 0.008 µM.

Take `C=C[C@@H]1C[C@]1(NC(=O)[C@@H]1C[C@@]2(CN1C(=O)[C@@H](NC(=O)[C@@H](NC(=O)[C@@H]1CCCCN1C(C)C)C1(C)CCOCC1)C1(C)CCCCC1)C(C)(C)C21CCC1)C(=O)NS(=O)(=O)N(CC)CC` [Compound 158, (5R,8S)-N-[(1R,2S)-1-{[(diethylamino)sulfonyl]carbamoyl}-2-vinylcyclopropyl]-7-[(2S)-2-{[(2S)-2-({[(2S)-1-isopropylpiperidin-2-yl]carbonyl}amino)-2-(4-methyltetrahydro-2H-pyran-4-yl)acetyl]amino}-2-(1-methylcyclohexyl)acetyl]-10,10-dimethyl-7-azadispiro[3.0.4.1]decane-8-carboxamide]: the IC50 was 0.022 µM.

For `C=C[C@@H]1C[C@]1(NC(=O)[C@@H]1C[C@@]2(CN1C(=O)[C@@H](NC(=O)[C@@H](NC(=O)[C@@H]1CCCN1C(C)C)C1CCCC1)C(C)(C)C)C(C)(C)C21CCC1)C(=O)NS(=O)(=O)N1CCCC1` [Compound 59, (5R,8S)-7-[(2S)-2-{[(2S)-2-cyclopentyl-2-({[(2S)-1-isopropylpyrrolidin-2-yl]carbonyl}amino)acetyl]amino}-3,3-dimethylbutanoyl]-10,10-dimethyl-N-{(1R,2S)-1-[(pyrrolidin-1-ylsulfonyl)carbamoyl]-2-vinylcyclopropyl}-7-azadispiro[3.0.4.1]decane-8-carboxamide], the IC50 was determined as 0.0035 µM.

On to `CC[C@@H]1C[C@]1(NC(=O)[C@@H]1C[C@@]2(CN1C(=O)[C@@H](NC(=O)[C@@H](NC(=O)[C@H]1CCCCN1C(C)C)C1CCCCC1)C(C)(C)C)C(C)(C)C21CCC1)C(=O)NS(=O)(=O)N1CCCC1` [Compound 123, (5R,8S)-7-[(2S)-2-{[(2S)-2-cyclohexyl-2-({[(2R)-1-isopropylpiperidin-2-yl]carbonyl}amino)acetyl]amino}-3,3-dimethylbutanoyl]-N-{(1R,2R)-2-ethyl-1-[(pyrrolidin-1-ylsulfonyl)carbamoyl]cyclopropyl}-10,10-dimethyl-7-azadispiro[3.0.4.1]decane-8-carboxamide], for which the concentration for half-maximal inhibition (IC50) was 0.008 µM.

As for `C=C[C@@H]1C[C@]1(NC(=O)[C@@H]1C[C@@]2(CN1C(=O)[C@@H](NC(=O)[C@@H](NC(=O)[C@@H]1CCCN1C(C)C)C1CCCCC1)C(C)(C)C)C(C)(C)C21CCC1)C(=O)NS(=O)(=O)N(C)CC` [Compound 91, (5R,8S)-7-[(2S)-2-{[(2S)-2-cyclohexyl-2-({[(2S)-1-isopropylpyrrolidin-2-yl]carbonyl}amino)acetyl]amino}-3,3-dimethylbutanoyl]-N-[(1R,2S)-1-({[ethyl(methyl)amino]sulfonyl}carbamoyl)-2-vinylcyclopropyl]-10,10-dimethyl-7-azadispiro[3.0.4.1]decane-8-carboxamide], the IC50 came out at 0.005 µM.

Take `C=C[C@@H]1C[C@]1(NC(=O)[C@@H]1C[C@@]2(CN1C(=O)[C@@H](NC(=O)[C@@H](N1CCCC1=O)C(C)(C)C)C(C)(C)C)C(C)(C)C21CCC1)C(=O)NS(=O)(=O)N1CCCC1` [Compound 9, (5R,8S)-7-[(2S)-2-{[(2S)-3,3-dimethyl-2-(2-oxopyrrolidin-1-yl)butanoyl]amino}-3,3-dimethylbutanoyl]-10,10-dimethyl-N-{(1R,2S)-1-[(pyrrolidin-1-ylsulfonyl)carbamoyl]-2-vinylcyclopropyl}-7-azadispiro[3.0.4.1]decane-8-carboxamide]: the IC50 turned out to be 0.1 µM.

With `C=C[C@@H]1C[C@]1(NC(=O)[C@@H]1C[C@@]2(CN1C(=O)[C@@H](NC(=O)[C@@H](NC(=O)[C@@H]1Cc3[nH]cnc3CN1)C(C)(C)C)C(C)(C)C)C(C)(C)C21CCC1)C(=O)NS(=O)(=O)N1CCCC1` [Compound 29, (5R,8S)-7-[(2S)-2-{[(2S)-3,3-dimethyl-2-{[(6S)-4,5,6,7-tetrahydro-1H-imidazo[4,5-c]pyridin-6-ylcarbonyl]amino}butanoyl]amino}-3,3-dimethylbutanoyl]-10,10-dimethyl-N-{(1R,2S)-1-[(pyrrolidin-1-ylsulfonyl)carbamoyl]-2-vinylcyclopropyl}-7-azadispiro[3.0.4.1]decane-8-carboxamide], the half-maximal inhibitory concentration (IC50) was determined as 0.04 µM.

On to `C=C[C@@H]1C[C@]1(NC(=O)[C@@H]1C[C@@]2(CN1C(=O)[C@@H](NC(=O)[C@@H](NC(=O)c1cnccn1)C1CCCCC1)C(C)(C)C)C(C)(C)C21CCC1)C(=O)NS(=O)(=O)N(CC)CC` [Compound 173, (5R,8S)-7-[(2S)-2-({(2S)-2-cyclohexyl-2-[(pyrazin-2-ylcarbonyl)amino]acetyl}amino)-3,3-dimethylbutanoyl]-N-[(1R,2S)-1-{[(diethylamino)sulfonyl]carbamoyl}-2-vinylcyclopropyl]-10,10-dimethyl-7-azadispiro[3.0.4.1]decane-8-carboxamide], for which the half-inhibitory concentration (IC50) was determined as 0.003 µM.

With `C=C[C@@H]1C[C@]1(NC(=O)[C@@H]1C[C@@]2(CN1C(=O)[C@@H](NC(=O)[C@@H](NC(=O)c1cnccn1)C1CCCCC1)C(C)(C)C)C(C)(C)C21CCC1)C(=O)NS(=O)(=O)NC(C)(C)C` [Compound 166, (5R,8S)-N-[(1R,2S)-1-{[(tert-butylamino)sulfonyl]carbamoyl}-2-vinylcyclopropyl]-7-[(2S)-2-({(2S)-2-cyclohexyl-2-[(pyrazin-2-ylcarbonyl)amino]acetyl}amino)-3,3-dimethylbutanoyl]-10,10-dimethyl-7-azadispiro[3.0.4.1]decane-8-carboxamide], the half-inhibitory concentration (IC50) amounted to 0.01 µM.
